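96-well plates; 48 h exposure; 5 concentrations. Endpoints by linear interpolation between flanking doses. Not reached: highest tested concentration assigned. The concentration for 50% growth inhibition is given as GI50. At the TGI there is no net growth.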
Columns and labels:
Test in all cases: NCI-60 cell line screen, 48 h
786-0 renal = tested on: 786-0 renal
A498 renal = tested on: A498 renal
A549 NSCLC = tested on: A549 NSCLC
ACHN renal = tested on: ACHN renal
CAKI-1 renal = tested on: CAKI-1 renal
CCRF-CEM leukemia = tested on: CCRF-CEM leukemia
COLO 205 colon = tested on: COLO 205 colon
DU-145 prostate = tested on: DU-145 prostate
EKVX NSCLC = tested on: EKVX NSCLC
HCT-116 colon = tested on: HCT-116 colon
HCT-15 colon = tested on: HCT-15 colon
HOP-62 NSCLC = tested on: HOP-62 NSCLC
HS 578T breast = tested on: HS 578T breast
HT29 colon = tested on: HT29 colon
IGROV1 ovarian = tested on: IGROV1 ovarian
K-562 leukemia = tested on: K-562 leukemia
KM12 colon = tested on: KM12 colon
LOX IMVI melanoma = tested on: LOX IMVI melanoma
M14 melanoma = tested on: M14 melanoma
MALME-3M melanoma = tested on: MALME-3M melanoma
MCF7 breast = tested on: MCF7 breast
MDA-MB-231 breast = tested on: MDA-MB-231 breast
MDA-MB-435 = tested on: MDA-MB-435
MOLT-4 leukemia = tested on: MOLT-4 leukemia
NCI-H226 lung = tested on: NCI-H226 lung
NCI-H23 lung = tested on: NCI-H23 lung
NCI-H460 lung = tested on: NCI-H460 lung
NCI-H522 lung = tested on: NCI-H522 lung
OVCAR-3 ovarian = tested on: OVCAR-3 ovarian
OVCAR-4 ovarian = tested on: OVCAR-4 ovarian
OVCAR-5 ovarian = tested on: OVCAR-5 ovarian
OVCAR-8 ovarian = tested on: OVCAR-8 ovarian
PC-3 prostate = tested on: PC-3 prostate
RPMI-8226 leukemia = tested on: RPMI-8226 leukemia
RXF 393 renal = tested on: RXF 393 renal
SF-268 CNS = tested on: SF-268 CNS
SF-295 CNS = tested on: SF-295 CNS
SF-539 CNS = tested on: SF-539 CNS
SK-MEL-2 melanoma = tested on: SK-MEL-2 melanoma
SK-MEL-28 melanoma = tested on: SK-MEL-28 melanoma
SK-MEL-5 melanoma = tested on: SK-MEL-5 melanoma
SN12C renal = tested on: SN12C renal
SNB-75 CNS = tested on: SNB-75 CNS
SR leukemia = tested on: SR leukemia
SW-620 colon = tested on: SW-620 colon
T-47D breast = tested on: T-47D breast
TK-10 renal = tested on: TK-10 renal
U251 CNS = tested on: U251 CNS
UACC-257 melanoma = tested on: UACC-257 melanoma
UACC-62 melanoma = tested on: UACC-62 melanoma
UO-31 renal = tested on: UO-31 renal
HCC-2998 colon = tested on: HCC-2998 colon
HL-60(TB) leukemia = tested on: HL-60(TB) leukemia
HOP-92 NSCLC = tested on: HOP-92 NSCLC
NCI/ADR-RES ovarian = tested on: NCI/ADR-RES ovarian
SK-OV-3 ovarian = tested on: SK-OV-3 ovarian
SNB-19 CNS = tested on: SNB-19 CNS

O=[N+]([O-])c1cc(Cl)c(Cl)cc1[N+](=O)[O-]
TGI (786-0 renal): 6.36 µM
TGI (A498 renal): 33 µM
TGI (A549 NSCLC): 4.97 µM
TGI (ACHN renal): 6.51 µM
TGI (CAKI-1 renal): 4.28 µM
TGI (CCRF-CEM leukemia): > 100 µM
TGI (COLO 205 colon): 26.5 µM
TGI (DU-145 prostate): 4.42 µM
TGI (EKVX NSCLC): 8.81 µM
TGI (HCT-116 colon): > 100 µM
TGI (HCT-15 colon): 7.77 µM
TGI (HOP-62 NSCLC): 6.49 µM
TGI (HS 578T breast): 72.3 µM
TGI (HT29 colon): 26.9 µM
TGI (IGROV1 ovarian): 3.44 µM
TGI (K-562 leukemia): 5.81 µM
TGI (KM12 colon): 13 µM
TGI (LOX IMVI melanoma): 4.74 µM
TGI (M14 melanoma): 8.8 µM
TGI (MALME-3M melanoma): 5.83 µM
TGI (MCF7 breast): 4.85 µM
TGI (MDA-MB-231 breast): 4.38 µM
TGI (MDA-MB-435): 12.8 µM
TGI (MOLT-4 leukemia): 0.797 µM
TGI (NCI-H226 lung): 11 µM
TGI (NCI-H23 lung): 4.83 µM
TGI (NCI-H460 lung): 12.3 µM
TGI (NCI-H522 lung): 3.36 µM
TGI (OVCAR-3 ovarian): 3.22 µM
TGI (OVCAR-4 ovarian): 4.63 µM
TGI (OVCAR-5 ovarian): 5.21 µM
TGI (OVCAR-8 ovarian): 5.99 µM
TGI (PC-3 prostate): 3.94 µM
TGI (RPMI-8226 leukemia): 15.2 µM
TGI (RXF 393 renal): 3.48 µM
TGI (SF-268 CNS): 3.66 µM
TGI (SF-295 CNS): 5.23 µM
TGI (SF-539 CNS): 4.68 µM
TGI (SK-MEL-2 melanoma): 4.74 µM
TGI (SK-MEL-28 melanoma): 6.04 µM
TGI (SK-MEL-5 melanoma): 29.2 µM
TGI (SN12C renal): 3.52 µM
TGI (SNB-75 CNS): 9.32 µM
TGI (SR leukemia): 4.98 µM
TGI (SW-620 colon): 7.73 µM
TGI (T-47D breast): 6.63 µM
TGI (TK-10 renal): 12.3 µM
TGI (U251 CNS): 3.82 µM
TGI (UACC-257 melanoma): 4.1 µM
TGI (UACC-62 melanoma): 4.42 µM
TGI (UO-31 renal): 3.62 µM

Nc1nc(N)c(N=Nc2ccccc2)c(-c2ccccc2)n1
GI50 (786-0 renal): 5.98 µM
TGI (786-0 renal): 19.4 µM
GI50 (A498 renal): 2.07 µM
TGI (A498 renal): 11.4 µM
GI50 (A549 NSCLC): 6.85 µM
TGI (A549 NSCLC): 22.8 µM
GI50 (ACHN renal): 4.49 µM
TGI (ACHN renal): 19 µM
GI50 (CAKI-1 renal): 3.57 µM
TGI (CAKI-1 renal): 23.5 µM
GI50 (CCRF-CEM leukemia): 8.14 µM
TGI (CCRF-CEM leukemia): > 100 µM
GI50 (COLO 205 colon): 9.29 µM
TGI (COLO 205 colon): 25.8 µM
GI50 (DU-145 prostate): 9.9 µM
TGI (DU-145 prostate): 34.1 µM
GI50 (EKVX NSCLC): 3.75 µM
TGI (EKVX NSCLC): 30.8 µM
GI50 (HCC-2998 colon): 14.3 µM
TGI (HCC-2998 colon): > 100 µM
GI50 (HCT-116 colon): 5.12 µM
TGI (HCT-116 colon): 18.3 µM
GI50 (HCT-15 colon): 5.95 µM
TGI (HCT-15 colon): 39.9 µM
GI50 (HL-60(TB) leukemia): 11.1 µM
TGI (HL-60(TB) leukemia): > 100 µM
GI50 (HOP-62 NSCLC): 4.25 µM
TGI (HOP-62 NSCLC): 19.2 µM
GI50 (HOP-92 NSCLC): 1.45 µM
TGI (HOP-92 NSCLC): 9.95 µM
GI50 (HS 578T breast): 1.66 µM
TGI (HS 578T breast): 6.88 µM
GI50 (IGROV1 ovarian): 2.01 µM
TGI (IGROV1 ovarian): 22.2 µM
GI50 (K-562 leukemia): 10.3 µM
TGI (K-562 leukemia): > 100 µM
GI50 (KM12 colon): 2.89 µM
TGI (KM12 colon): 14.5 µM
GI50 (LOX IMVI melanoma): 11 µM
TGI (LOX IMVI melanoma): 23.5 µM
GI50 (M14 melanoma): 12 µM
TGI (M14 melanoma): 34.6 µM
GI50 (MALME-3M melanoma): 4.33 µM
TGI (MALME-3M melanoma): 24.9 µM
GI50 (MCF7 breast): 0.362 µM
TGI (MCF7 breast): 18.1 µM
GI50 (MDA-MB-231 breast): 5.84 µM
TGI (MDA-MB-231 breast): 30.5 µM
GI50 (MDA-MB-435): 11.5 µM
TGI (MDA-MB-435): 29.5 µM
GI50 (MOLT-4 leukemia): 3.68 µM
TGI (MOLT-4 leukemia): 68.7 µM
GI50 (NCI-H226 lung): 4.19 µM
TGI (NCI-H226 lung): 19.4 µM
GI50 (NCI-H23 lung): 10.4 µM
TGI (NCI-H23 lung): 31.4 µM
GI50 (NCI-H460 lung): 4.16 µM
TGI (NCI-H460 lung): 17.8 µM
GI50 (NCI/ADR-RES ovarian): 9.53 µM
TGI (NCI/ADR-RES ovarian): 53.1 µM
GI50 (OVCAR-3 ovarian): 10.4 µM
TGI (OVCAR-3 ovarian): 23 µM
GI50 (OVCAR-4 ovarian): 4.03 µM
TGI (OVCAR-4 ovarian): 20.7 µM
GI50 (OVCAR-5 ovarian): 6.47 µM
TGI (OVCAR-5 ovarian): 23.8 µM
GI50 (OVCAR-8 ovarian): 11.1 µM
TGI (OVCAR-8 ovarian): 37.4 µM
GI50 (PC-3 prostate): 3.02 µM
TGI (PC-3 prostate): 20.8 µM
GI50 (RPMI-8226 leukemia): 7.98 µM
TGI (RPMI-8226 leukemia): 46 µM
GI50 (RXF 393 renal): 3.42 µM
TGI (RXF 393 renal): 15.4 µM
GI50 (SF-268 CNS): 5.86 µM
TGI (SF-268 CNS): 66.8 µM
GI50 (SF-295 CNS): 3.18 µM
TGI (SF-295 CNS): 18.6 µM
GI50 (SF-539 CNS): 6.39 µM
TGI (SF-539 CNS): 21.1 µM
GI50 (SK-MEL-28 melanoma): 11.3 µM
TGI (SK-MEL-28 melanoma): 28.2 µM
GI50 (SK-MEL-5 melanoma): 3.74 µM
TGI (SK-MEL-5 melanoma): 20.3 µM
GI50 (SK-OV-3 ovarian): 4.4 µM
TGI (SK-OV-3 ovarian): 17.5 µM
GI50 (SNB-19 CNS): 12.5 µM
TGI (SNB-19 CNS): 43.3 µM
GI50 (SNB-75 CNS): 1.41 µM
TGI (SNB-75 CNS): 7.8 µM
GI50 (SR leukemia): 4.54 µM
TGI (SR leukemia): 73.3 µM
GI50 (SW-620 colon): 12.8 µM
TGI (SW-620 colon): 27.2 µM
GI50 (T-47D breast): 0.487 µM
TGI (T-47D breast): 6.91 µM
GI50 (U251 CNS): 8.27 µM
TGI (U251 CNS): 26.8 µM
GI50 (UACC-257 melanoma): 13.7 µM
TGI (UACC-257 melanoma): 35.9 µM
GI50 (UACC-62 melanoma): 4.33 µM
TGI (UACC-62 melanoma): 20.1 µM
GI50 (UO-31 renal): 2.54 µM
TGI (UO-31 renal): 24.7 µM

From PubChem BioAssay (NCI)
